row,melting point [°C],SMILES
1,99 to 100,C#Cc1cccc(NC(=O)C(Cl)Cl)c1
2,218,Cc1ccc(C2(O)CCN(CCCN3c4cccc5cccc(c45)S3(=O)=O)CC2)cc1
3,182 to 184,Nc1cc(OCc2ccccc2)c(C(=O)O)cc1Cl
4,81 to 83,CCOC(=O)c1ccccc1NCCOc1cccc2ccccc12
5,105 to 106,CCCc1nn(-c2ccc(C(F)(F)F)cn2)cc1CCCOc1nn(CC)cc1CC(=O)O
6,235 to 237,Cn1c(=O)c(-c2c(Cl)cccc2Cl)cc2cnc(N)nc21
7,102 to 104,CCCCCNC(=O)[C@@H]1CCCN1C(=O)[C@H](C)NC(=O)OCc1ccccc1
8,202 to 203,CCOC(=O)CC(=O)Nc1nc(-c2ccc(OC)cc2)c(-c2cccnc2)s1
9,154 to 155,COC1=NS(=O)N=C1NCCCCC#CCN(C)C (stereo not drawn)
10,117 to 122,Cc1c2ccccc2c(-c2cc(Br)c(OC(Cc3ccccc3)C(=O)O)c(Br)c2)c2c1sc1ccccc12 (stereo not drawn)
11,242 to 246,Nc1nc(-n2cc(C(=O)O)c(=O)c3cc(F)c(F)c(Cl)c32)ncc1F
12,112 to 114,Cc1cnc(CCC(C)C#N)c(N)c1 (stereo not drawn)
13,117,CC(=O)OC1CSC(Oc2ccc(C)nc2-c2ccoc2)C(OC(C)=O)C1OC(C)=O (stereo not drawn)
14,289 to 293,COc1ccc(-c2nnc3c4ccccc4c(Nc4ccc(-c5nnn(C)n5)cc4)nn23)cc1
15,42 to 44,CN(CCC(Oc1ccc(C(F)(F)F)cc1)c1ccccc1)Cc1ccccc1 (stereo not drawn)
16,174 to 176,NC(=O)c1cnn2c1N(C(=O)CCl)CC=C2c1cccc(C(F)(F)F)c1
17,116 to 117,CON(C)C(=O)CCc1oc(-n2ccnc2C)nc1-c1ccc(Cl)cc1
18,82 to 83,CCCCc1c(Cl)nc(NC=O)nc1Cl
19,81 to 84,Cc1nc(-n2cc(CCCc3ccccc3)nn2)sc1C(=O)NCc1ccc(F)c(F)c1
20,155 to 157,NC(=O)N(O)CC#Cc1cccc(C2=N[C@H](c3ccccc3)CS2)c1
21,255,O=C(O)CNC1C2CC3CC(C2)CC1C3 (stereo not drawn)
22,192 to 197,CS(=O)(=O)Nc1cccc(Nc2nc(N3CCC[C@H]3CO)c3nc[nH]c3n2)c1

row,melting point [°C],SMILES
1,147 to 148,N#Cc1ccc(-c2ccc(Br)cc2)cc1
2,53.6 to 55.7,CCCCCCCCCCCCCCCCCC1OCC(COC(O)CCCCC=O)O1 (stereo not drawn)
3,260 to 262,CNC(=O)c1cc(-c2cccc3nc(Nc4cc(OC)c(OC)c(OC)c4)oc23)cs1
4,107,NC(=S)N1CCC(=O)C(C(c2ccccc2)c2ccccc2)C1 (stereo not drawn)
5,156 to 157,O=C(NC1CCCc2ccccc21)c1ccc([N+](=O)[O-])cc1 (stereo not drawn)
6,223 to 225,CN(C)c1ccc(-c2cccc3c2C2(COc4cc5c(cc42)CCO5)C(=O)N3Cc2ccc(C(F)(F)F)o2)cn1 (stereo not drawn)
7,197 to 199,Oc1ccc(N=Nc2cccc(Cl)c2Cl)c(Cl)c1Cl
8,161 to 162,Cc1oc(-c2ccc3ccccc3c2)nc1COc1ccc(COc2ncccc2CO)cc1
9,225,O=C1CC(c2cccc(-n3ccnc3)c2)=Nc2cc(N3CCC4(CC3)OCCO4)c(-c3ccccc3F)cc2N1
10,149 to 150,CCCN1CC(c2cccc(Cl)c2)=C(c2ccc(S(N)(=O)=O)cc2)C1=O
11,81 to 93,COc1cc2c(cc1Nc1ncc(Cl)c(Nc3ccc(N(C)C)cc3S(=O)(=O)C(C)C)n1)CCN(CC(=O)N(C)C)CC2
12,153 to 155,CNC(=O)CCCSc1nccc(NC(N)=NCC(F)(F)F)n1
13,113 to 120,C(=C\c1cc(/C=C/c2ccccc2OCc2ccccn2)[nH]n1)/c1ccc2cc[nH]c2c1
14,167 to 168,CCC(C)(C)C(=O)Oc1cccc2ccc(OCCOc3ccc(C(=O)C(=O)O)cc3)cc12
15,191 to 195,Cc1nc(-c2ccc(O)cc2)cc(-c2c(Cl)ccc(Cl)c2Cl)c1C#N
16,294 to 296,NC(=O)c1cn(-c2ccc(F)cc2)c2cc(Cl)ccc2c1=O
17,205 to 207,Cc1c(C)c2c(c(C)c1O)CCC(C)(COc1ccc(CC3SC(=N)NC3=O)cc1)O2 (stereo not drawn)
18,82 to 84,COc1cc2c(cc1OC(C)C)C(=O)C1c3c(cc(OC(C)C)c(OC)c3-2)CCN1C (stereo not drawn)
19,254 to 258,CC12CCC3(CC1CCC1C2CCC2(C)C(N)C(O)CC12)OCCO3 (stereo not drawn)
20,254 to 255,Cc1c(N2C[C@@H](NC(=O)C(F)(F)F)C(C)(C)C2)c(F)c(N)c2c(=O)c(C(=O)O)cn(C3CC3)c12
21,182 to 183,CCCCS(=O)(=O)N1CCC(c2ccc(O)cc2O)CC1
22,244 to 246,CCc1[nH]nc2c1C(=O)c1c(NC(=O)NN3CCN(C)CC3)cccc1-2

row,melting point [°C],SMILES
1,255,C1=Nc2c(cnn2-c2ccccc2)C2=N[C@@H](Cc3ccccc3)CN12
2,148 to 150,COc1ccc2cc(C(OC)(OC)C(C)OS(=O)(=O)c3ccc(C)cc3)ccc2c1 (stereo not drawn)
3,260 to 265,O=C1NCCN(Cc2cc(=O)c(OCc3ccccc3)cn2Cc2ccccc2)C1=O
4,189 to 191,CS(=O)(=O)Cc1ccc(C(=NNC(N)=O)c2ccc(Cl)cc2)cc1
5,165 to 166,NC(=NCC(F)(F)F)Nc1ccnc(SCCCNC=O)n1
6,182 to 185,CC(C)CC(=O)Nc1cccc(-c2ccnc3c(-c4cccc(-c5ccccc5)c4)cnn23)c1
7,161 to 163,CCSc1c(C=NO)c(=O)n(C)c(=O)n1C
8,228 to 233,COC(=O)N(C)C1CN(C(=O)Nc2ccc(OC(F)(F)F)cc2)N=C1c1ccc(O)cc1 (stereo not drawn)
9,127 to 131,O=C1c2ccccc2Nc2ccccc2N1CCCCl
10,108 to 109,CCCCCCCCCCCCCCCCCCN(C)c1ccc([N+](=O)[O-])cc1C(=O)O
11,160,O=C1CCC(c2cccc(Cl)c2)(c2cccc(Cl)c2)[C@@H]2CN(C(=O)Cc3ccccc3)C[C@H]12 (racemic)
12,101,CS(=O)(=O)Nc1cc2c(cc1Oc1ccc(F)cc1F)C(=O)CC2c1ccccc1 (stereo not drawn)
13,103 to 104,CCOC(=O)COc1cc2c(c(Cl)c1Cl)C(=O)C(CC#C[Si](C)(C)C)(c1ccc(Cl)cc1)C2 (stereo not drawn)
14,218 to 220,COc1ccc2c(=O)cc(-c3n[nH]c4ccccc34)oc2c1
15,122,Cc1ccccc1CNC[C@@H]1C[C@@H](S)CN1S(=O)(=O)c1ccc2ccccc2c1
16,170 to 171,CC(C)Oc1ccc(OCc2ccccc2)cc1-c1nc2cc(C=O)cnc2[nH]1
17,168,Cc1cccc(NC(=O)NCC(=O)N(CC(=O)N(C)c2ccccc2)c2ccccc2)c1
18,140 to 142,CC(=O)c1c(C)[nH]c(C(C)CC(C)C)c1C (stereo not drawn)
19,167 to 168,O=CN(O)C(CO)CS(=O)(=O)c1ccc(-c2ccc(OC(F)(F)F)cc2)cc1 (stereo not drawn)
20,141 to 144,COc1ccc(F)cc1C(C)(C)CC(O)(Cn1[nH]c(=O)c2ccccc21)C(F)(F)F (stereo not drawn)

row,SMILES,melting point [°C]
1,CC1CCC2(C)C(CCC3C4CCC(=O)C4(C)CCC32)C1 (stereo not drawn),107 to 108
2,Cn1ccc2c1CC(C(=O)OCc1ccccc1)C1C(=O)NC(=O)C21 (stereo not drawn),189 to 193
3,Cc1ccn2ncc(C(=O)NC3CN4CCC3CC4)c2c1 (stereo not drawn),100 to 102
4,NC(=O)c1ncn2c1[C@@H]1CCN1C(=O)c1ccccc1-2,228 to 230
